Experimental data: patent publication US20220160718A1, “COMPOSITIONS AND METHODS OF TREATING CANCER” (Bristol-Myers Squibb Company, priority 2018, published 2022)

Key:
[1] = test system: Mouse colon tumor MC38 cells; assay: Mouse colon tumor (MC38) model, anti-tumor efficacy; type: in vivo
Method: (§1) Female C57BL/6 mice from Charles River Laboratories (Raleigh, N.C.) were received in house at age 6-8 weeks and acclimated for 3-7 days prior to implant. Mouse colon tumor MC38 cells were implanted subcutaneously at a concentration of 1×10^7 cells/mL, 0.1 mL per injection, using a 1 mL tuberculin syringe with 25 g needle.
On Day 6 post implant, mice were randomized and sorted into groups with 10 mice per group. […] Antibody B was administered i.p. every 4 days for a total of 3 doses.
(§2) Tumors and group body weights were weighed and measured twice weekly until tumors reached a volume of approximately 1500 mm^3. Animals were euthanized if the tumor reached a volume greater than approximately 1500 mm^3 or appeared ulcerated. Mean, median and/or survival plots as well as number of tumor-free mice were calculated to determine efficacy.

[2] = test system: Mouse colon tumor CT26 cells; assay: Mouse colon tumor (CT26) model, anti-tumor efficacy; type: in vivo
Method: as §1, with “BALB/C” for “C57BL/6”, “ENVIGO (Frederick, Md.)” for “Charles River Laboratories (Raleigh, N.C.)”, “implantation.” for “implant.”, “CT26” for “MC38”
On Day 10 post implant, mice were randomized and sorted into groups with 10 mice per group. […] Antibody B was administered i.p. every 4 days for a total of 3 doses.
as §2

[3] = target: T1, human CCR5 (Homo sapiens, UniProt P51681); assay: Human CCR5-mediated CD11b integrin upregulation in whole blood; type: cell-based; set-up: established with human whole blood; from tissue; host or cells: human whole blood; conditions: human pharmacology, MIP-1beta 50 nM, read-out: CCR5 Potency, ligand-induced integrin upregulation in whole blood
[4] = Mouse PK of Compound C; type: in vivo
[5] = target: T1, human CCR5; assay: Human CCR5-mediated calcium flux in HT1080/CCR5 cells; type: cell-based; conditions: human pharmacology, MIP-1beta 50 nM, read-out: CCR5 Potency, ligand-induced calcium flux in cells
Method: (§3) All samples were tested in duplicate.

[6] = target: T2, human CCR2 (Homo sapiens, UniProt P41597); assay: Human CCR2-mediated calcium flux in THP-1 cells; type: cell-based; set-up: established with the human monocytic cell line, THP-1; endogenous in cells; host or cells: THP-1 human monocytic cell line; conditions: human pharmacology, human MCP-1 10 nM, read-out: CCR2 Potency, ligand-induced calcium flux in cells
Method: as §3

[7] = target: T2, human CCR2; assay: Human CCR2-mediated CD11b integrin upregulation in whole blood; type: cell-based; conditions: human pharmacology, MCP-1 10 nM, read-out: CCR2 Potency, ligand-induced integrin upregulation in whole blood
Method: A CCR2-dependent CD11b upregulation assay was established with human whole blood. […] The reactions were incubated for 30 minutes at 37° C. […] The samples were then incubated for 30 minutes on ice in the dark. […] Data acquisition and analysis were performed using CellQuestPro™ software. A sequential gating strategy was used to analyze the CD14high CD11b+ monocyte population. […] A similar procedure for mouse CCR5 was adopted except that MIP-1beta (50 nM) was used as the ligand.

[8] = target: T3, mouse CCR2 (Mus musculus, UniProt P51683); assay: Mouse CCR2 potency (assay not specified)
T3 construct: WEHI-274.1 mouse monocyte line; endogenous in cells; host or cells: WEHI-274.1 mouse monocyte line

[9] = target: T1, human CCR5; assay: Inhibition of 125I-MIP-1beta binding to human T cells (human CCR5); set-up: hPBMCs and human T cells were isolated from human leukopak; endogenous in cells; host or cells: human T cells isolated from human leukopak; conditions: human pharmacology, 125I-human MIP-1beta, read-out: CCR5 Potency, binding on CCR5-expressing cells (displacing 125I-labelled ligand)
Method: All conditions were tested in duplicate.

[10] = Tolerability in MC38 tumor-bearing mice; type: in vivo; conditions: MC38 model; alone or in combination
Method: as §2

[11] = Tolerability in CT26 tumor-bearing mice; type: in vivo; conditions: CT26 model; alone or in combination
Method: as §2

[12] = target: T4, mouse PD-1 (Mus musculus, UniProt Q02242); assay: Blocking binding of PD-L1 to mouse PD-1 on CHO transfectants; conditions: mouse potency; mouse PD-L1, CHO mouse PD-1; read-out: Blocking PD-L1 binding to PD1-expressing cells for IC50
T4 construct: expressed in transfected cells; host or cells: CHO cells
T4 sequence (Q02242 25-288): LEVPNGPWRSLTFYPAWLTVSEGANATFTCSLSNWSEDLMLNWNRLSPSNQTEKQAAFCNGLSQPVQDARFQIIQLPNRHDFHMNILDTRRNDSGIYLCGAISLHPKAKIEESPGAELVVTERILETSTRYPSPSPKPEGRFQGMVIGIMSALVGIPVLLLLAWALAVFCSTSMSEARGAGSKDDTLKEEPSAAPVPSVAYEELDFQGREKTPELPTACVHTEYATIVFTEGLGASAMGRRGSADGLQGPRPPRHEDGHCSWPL
Method: CHO transfectants stably expressing human and mouse PD-1 were pre-incubated with titrated mAbs against human and mouse PD-1, respectively, followed by addition of PD-L1-Fc at 2 μg/mL. Cell-bound PD-L1-Fc was detected with a FITC-conjugated secondary to human IgG Fcγ.

[13] = target: T4, mouse PD-1; assay: Blocking binding of PD-L2 to mouse PD-1 on CHO transfectants; conditions: mouse potency; mouse PD-L2, CHO mouse PD-1; read-out: Blocking PD-L2 binding to PD1-expressing cells for IC50
Method: CHO transfectants stably expressing human and mouse PD-1 were pre-incubated with titrated mAbs against human and mouse PD-1, respectively, followed by addition of PD-L2-Fc at 15 μg/ml. Cell-bound PD-L2-Fc was detected with a FITC-conjugated secondary to human IgG Fc.

[14] = target: T4, mouse PD-1; assay: Direct binding of anti-PD-1 mAb to mouse PD-1 on CHO transfectants; conditions: mouse potency; mouse PD1-expressing CHO cells
Method: Assays for Direct Binding of Anti-PD-1 Monoclonal Antibody (mAb) to PD1 Stably Expressed on CHO Transfectants
mAbs against human and mouse PD-1 were serially diluted and incubated with CHO cell transfectants stably expressing human and mouse PD-1, respectively, followed by detection with a FITC-conjugated secondary to mouse IgG Fcγ.

T1 sequence (P51681 whole entry): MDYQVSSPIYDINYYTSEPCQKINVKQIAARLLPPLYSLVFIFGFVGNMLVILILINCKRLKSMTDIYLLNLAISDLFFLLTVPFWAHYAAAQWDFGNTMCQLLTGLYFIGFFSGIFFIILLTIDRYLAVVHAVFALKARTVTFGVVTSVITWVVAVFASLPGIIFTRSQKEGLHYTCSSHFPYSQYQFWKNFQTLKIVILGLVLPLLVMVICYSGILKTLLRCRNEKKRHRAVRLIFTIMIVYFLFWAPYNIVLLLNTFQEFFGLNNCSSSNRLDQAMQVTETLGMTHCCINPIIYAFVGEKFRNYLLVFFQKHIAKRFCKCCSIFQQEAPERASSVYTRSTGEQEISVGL
T2 sequence (P41597 whole entry): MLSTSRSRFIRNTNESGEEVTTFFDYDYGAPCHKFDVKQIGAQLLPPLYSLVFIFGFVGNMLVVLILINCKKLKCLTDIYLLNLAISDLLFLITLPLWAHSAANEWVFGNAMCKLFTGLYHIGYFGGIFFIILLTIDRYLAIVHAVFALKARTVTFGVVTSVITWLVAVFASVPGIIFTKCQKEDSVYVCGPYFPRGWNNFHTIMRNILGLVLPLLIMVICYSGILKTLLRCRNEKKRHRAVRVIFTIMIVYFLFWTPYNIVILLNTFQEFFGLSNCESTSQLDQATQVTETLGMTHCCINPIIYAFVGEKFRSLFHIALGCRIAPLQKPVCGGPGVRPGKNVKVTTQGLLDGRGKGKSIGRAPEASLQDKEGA
T3 sequence (P51683 whole entry): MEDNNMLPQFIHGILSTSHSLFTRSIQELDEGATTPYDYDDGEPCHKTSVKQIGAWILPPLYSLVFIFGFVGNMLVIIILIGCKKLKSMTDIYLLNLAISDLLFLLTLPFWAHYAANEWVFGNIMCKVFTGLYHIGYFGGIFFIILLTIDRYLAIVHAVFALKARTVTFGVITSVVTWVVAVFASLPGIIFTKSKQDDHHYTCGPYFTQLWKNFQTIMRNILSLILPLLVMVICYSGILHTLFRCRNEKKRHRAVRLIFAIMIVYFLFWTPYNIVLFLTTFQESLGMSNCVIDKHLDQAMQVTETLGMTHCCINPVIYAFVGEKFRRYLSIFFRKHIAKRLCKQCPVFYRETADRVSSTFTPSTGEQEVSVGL

## CCC[C@@H]1C[C@H](N(C)C(C)C)CC[C@@H]1N1CC[C@H](Nc2ncnc3ccc(C(F)(F)F)cc23)C1=O [Compound A, (S)-1-((1S,2R,4R)-4-(isopropyl(methyl)amino)-2-propylcyclohexyl)-3-((6-(trifluoromethyl)quinazolin-4-yl)amino)pyrrolidin-2-one]
[1]; MC38 Study #1, Compound A 25 mg/kg PO BID 28 days alone
  Tumor-free mice: 0/10
[1]; MC38 Study #1, Compound A 50 mg/kg PO BID 28 days alone
  Tumor-free mice: 0/10
[1]; MC38 Study #1, Compound A 100 mg/kg PO BID 28 days alone
  Tumor-free mice: 0/10
[1]; MC38 Study #2, Compound A 6.25 mg/kg PO BID 28 days alone
  Tumor-free mice: 0/10
[1]; MC38 Study #2, Compound A 50 mg/kg PO BID 28 days alone
  Tumor-free mice: 0/10
[2]; Compound A 12.5 mg/kg PO BID 28 days alone
  Tumor-free mice: 0/10
[2]; Compound A 25 mg/kg PO BID 28 days alone
  Tumor-free mice: 0/10
[2]; Compound A 50 mg/kg PO BID 28 days alone
  Tumor-free mice: 0/10

## CC(=O)N[C@@H]1C[C@H](NC(C)(C)C)CC[C@@H]1N1CC[C@H](Nc2ncnc3cc(C(C)(C)C)nn23)C1=O [Compound C, N-((1R,2S,5R)-5-(tert-butylamino)-2-((S)-3-(7-tert-butylpyrazolo[1,5-a][1,3,5]triazin-4-ylamino)-2-oxopyrrolidin-1-yl)cyclohexyl)acetamide]
[3]
  IC50: 5.7 nM
[4]
  mouse PK: poor
[5]
  IC50: 2 nM
[6]
  IC50: 2.9 nM
[7]
  IC50: 4.8 nM
[8]
  mouse CCR2 potency: poor
[9]
  IC50: 3.6 nM

B1: Antibody B: anti-mouse PD-1 antibody generated by murinizing the Fc tail of 4H2; contains a mouse IgG1 D265A; SEQ ID NO: 1 and 2 (protein)
light: DTVLTQSPALAVSLGQRVTISCKASETVSSSMYSYIHWYQQKPGQQPKLLIYRASNLESGVPARFSGSGSGTDFTLTIDPVEADDVATYFCQQSWNPWTFGGGTKLELKRADAAPTVSIFPPSSEQLTSGGASVVCFLNNFYPKDINVKWKIDGSERQNGVLNSWTDQDSKDSTYSMSSTLTLTKDEYERHNSYTCEATHKTSTSPIVKSFNRNEC
heavy: QVQLKESGPGLVQPSQTLSLTCTVSGFSLTSYNVHWVRQPPGKGLEWMGGMRYNEDTSYNSALKSRLSISRDTSKNQVFLKMNSLQTDDTGTYYCTRDAVYGGYGGWFAYWGQGTLVTVSSAKTTPPSVYPLAPGSAAQTNSMVTLGCLVKGYFPEPVTVTWNSGSLSSGVHTFPAVLQSDLYTLSSSVTVPSSTWPSETVTCNVAHPASSTKVDKKIVPRDCGCKPCICTVPEVSSVFIFPPKPKDVLTITLTPKVTCVVVDISKDDPEVQFSWFVDDVEVHTAQTQPREEQFNSTFRSVSELPIMHQDWLNGKEFKCRVNSAAFPAPIEKTISKTKGRPKAPQVYTIPPPKEQMAKDKVSLTCMITDFFPEDITVEWQWNGQPAENYKNTQPIMDTDGSYFVYSKLNVQKSNWEAGNTFTCSVLHEGLHNHHTEKSLSHSPGK
modifications: Antibody B Light chain variable; Antibody B heavy chain variable
[1]; MC38 Study #1, Antibody B 10 mg/kg i.p., 3 doses, alone
  Tumor-free mice: 1/10
[1]; MC38 Study #2, Antibody B 10 mg/kg, 3 doses, alone
  Tumor-free mice: 0/10
[10]
  tolerability: well tolerated
[11]
  tolerability: well tolerated
[12]
  IC50: 3.6 nM
[13]
  IC50: 4.9 nM
[2]; Antibody B 10 mg/kg, 3 doses, alone
  Tumor-free mice: 0/10
[14]
  EC50: 2.9 nM
